Reference: patent publication US20250312408A1, “NAP FOR SEX-SPECIFIC TREATMENT OF DISEASES” (RAMOT AT TEL-AVIV UNIVERSITY LTD., priority 2021, published 2025)
Where two headings read alike, the source gives them in different places.

Columns and labels:
PSP patients [1] = test: Phase 2/3 davunetide vs placebo trial in PSP, re-evaluated separating males and females; format: in vivo, human
Experimental: In this example we used results of a clinical trial performed as described in Boxer et al. Shortly, in a double blind, parallel group, phase 2/3 trial, participants were randomly assigned with permuted blocks in a 1:1 ratio to davunetide (NAP, having amino acid sequence […] set forth as SEQ ID NO: 1, 30 mg twice daily, intranasally) or placebo for 52 weeks at 48 centers in Australia, Canada, France, Germany, the UK, and the USA. Participants met the modified Neuroprotection and Natural History in Parkinson Plus Syndrome study criteria for PSP. Primary endpoints were the change from baseline in PSP Rating Scale (PSPRS, 28 items, 6 categories, 0=normal, 100=most disability) and Schwab and England Activities of Daily Living scale (SEADL, 11-point rating scale, 0=vegetative, 100%/=completely independent, 10% increments) at up to 52 weeks. Data collection was at week 0, 6, 13, 26, 39 and 52. All participants and study personnel were masked to treatment assignment. Analysis was by intention to treat. The trial is registered with Clinicaltrials.gov, number NCT01110720. 313 participants were randomly assigned to davunetide (n=157) or to placebo (n=156), and 241 (77%) completed the study (118 and […] in the davunetide and placebo groups, respectively). A secondary outcome was brain ventricular volume as measured with boundary shift integral analysis of T1-weighted magnetic resonance imaging (MRI) scans, mostly collected at week 0 and 52. At the same time, selected patients were also subjected to lumbar puncture and assessment of Tau content and Tau hyperphosphorylation in the cerebrospinal fluid (CSF).
To further understand disease progression, sex/age/baseline differences and drug influence, we re-evaluated study results, separating males and females, and assessing the primary and secondary endpoints. In this respect, we further assessed individually the 6 disability domains of the PSPRS, namely: daily activities (by history, seven items with a total maximum score of 24), behavior (mentation, emotional, interference with activity of daily living, maximum score of 16), bulbar (speech and swallowing, maximal score of 8), ocular motor (eye and eyelid activity, 16 points), limb motor (fine motor skills including tremor, 16 points) and gait/midline (gross motor skills, 20 points) https://www.physio-pedia.com/Progressive_Supranuclear_Palsy_Rating_Scale_(PSP-RS).
Statistical considerations: To include the ventricle volumetric measures, the cohort was composed of female and male PSP patients treated with davunetide or placebo (sample sizes for sex-treatment groups at 52 weeks of treatment: 48-55), outcome variables included ventricular volume (will be referred to as volume), PSPRS and SEADL assessed at study initiation and follow up to 52 weeks after twice daily treatment.
Data analysis was performed using Graph Pad Prism 7.0 software (see FIGS. 1 and 4). Other statistical tests and visualizations were made in R version 4.2.1 (2022-06-23) with the base library, ggplot2 and ggplot2 extension packages. Correlation plots statistics (FIGS. 2, 3 and 5) were computed using the standard Pearson method. The volume change (from FIG. 3) is the difference between the baseline and week-52 measurements. PSPRS, SEADL and ventricular volume in figures (FIG. 5) are represented by differences between the baseline and week-52 measurements, as a percentage of the baseline measurement. FIGS. 6 and 7 give the absolute changes overtime, due to the non-normal distribution of most parameters, statistical significance was measured using the Wilcoxon test. Only extreme values (defined as 3*IQR deviation from the penultimate top/bottom quantiles), were removed from the final calculations. There were only 11 observations that were considered extreme and their influence on our results was insignificant. FIG. 8 representing the geriatric depression scale measure (GDS) was prepared using excel.

[2] = tested on: subjects suffering from amnestic mild cognitive impairment (aMCI); test: aMCI clinical trial, CANTAB Delayed Match-to-Sample (DMTS) test, men and women analysed separately; format: in vivo, human; details: for effect of treatment on aMCI symptoms: males, 30 mg/day; for DMTS change vs placebo, Student's t test: men only
Experimental: The subject's task is to select the pattern that matches the original sample, here depicted after a 12 s interval. Thus, subjects suffering from aMCI were treated with either 5 mg daily or 15 mg twice daily (BID) by intranasal davunetide administration (1 or three puffs of the same strength davunetide solution). Treatment was for 12 weeks and testing was at baseline and every four weeks, including also 4 weeks after cessation of treatment. When analyzing the data, we separated here men and women for the first time as outlined below. […] We further conclude that much higher dose are required, especially in females.

[3] = tested on: subjects with schizophrenia; test: Schizophrenia clinical trial, UCSD Performance-based Skills Assessment (UPSA), analysed separately for males and females; format: in vivo, human
Experimental: Briefly, sixty-three subjects with schizophrenia received davunetide at one of two different doses (5, 30 mg/day) or placebo for 12 weeks in a multicenter, double-blind, parallel-group randomized clinical trial. The MATRICS Consensus Cognitive Battery (MCCB) assessed cognitive effects. The UCSD Performance-based Skills Assessment (UPSA) with maximal score of 100 and the Schizophrenia Cognition Rating Scale (SCoRS) assessed functional capacity. Subjects continued their current antipsychotic treatment during the trial. For UPSA, there was a significant main effect of treatment across study arms (p=0.048). Between-group effect size (d) values were 0.74 and 0.48, favoring the 5 and 30 mg doses, respectively.
Considering the results obtained for PSP and the involvement of ADNP in both diseases, we analyzed the data separately for males and females with 7-16 subjects per group. […] All in all, the 5 mg daily dose was beneficial for women as detected after 6 and 12 weeks of treatment.

Hace1 = test: Hippocampal RNA sequencing of Adnp mutated (HTR (Tyr)) mice; format: in vivo
Text: In this model, gait deficits were accentuated in females, and ameliorated by NAP treatment. We discovered a surprising mirror imaging in NAP peptide (davunetide) brain (hippocampus) action in the treated mice as a dependence on mice sex. […] Hace1 is associated with ataxia and Huntington disease and is also involved in depression and Alzheimer's disease. NAP protection (FIG. 11) further attests to sex-dependent treatments of the diseases associated or mediated with Hace1.

[4] = tested on: subjects suffering from amnestic mild cognitive impairment (aMCI); details: sexes not separated; cited from earlier work
[5] = tested on: subjects with schizophrenia; details: cited from earlier work; for UPSA score vs placebo (Javitt et al.): 5 mg daily dose; for UPSA between-group effect size (d): 12 weeks, men and women mixed (Javitt et al.)
[6] = tested on: Adnp mutated (HTR (Tyr)) mice; details: deficits accentuated in females (Karmon et al.); cited from earlier work
PSP patients [7] = details: cited from earlier work; for PSP trial outcome, sexes not separated (Boxer et al.): 30 mg twice daily, 52 weeks, whole population
[8] = males, from week 26 on, 30 mg twice daily
[9] = woman cohort, very few individuals, exploratory

With `CC[C@H](C)[C@H](NC(=O)[C@H](CO)NC(=O)[C@@H](NC(=O)[C@@H]1CCCN1C(=O)[C@H](C)NC(=O)[C@@H](N)CC(N)=O)C(C)C)C(=O)N1CCC[C@H]1C(=O)N[C@@H](CCC(N)=O)C(=O)O` [davunetide] the “CGIds (Clinical Global Impression of Disease Severity)” value (PSP patients [1]; davunetide-treated males, P=0.013) was “deteriorated”, the “adverse effects on all other PSPRS domains” value (PSP patients [1]; females) was “no adverse effects” and the “ventricular volume increase correlating with baseline ventricular volume” value (PSP patients [1]; females, 30 mg twice daily intranasally, 52 weeks) was “complete protection”. The “PSPRS change vs placebo” value (PSP patients [1]; females, 52 weeks, 30 mg twice daily) was “trended toward significant improvement”, the “disease progression in PSPRS mental behavior domain” value (PSP patients [1]; females, over 52 weeks) was “almost halted” and the “SEADL change from baseline vs placebo” value (PSP patients [1]; females, starting at week 39 and continuing on 52, P=0.0187 and P=0.00537) was “significant protective effect”. For the same compound, the “effect on oculomotor activities (PSPRS domain)” value (PSP patients [1]; females, week 6, P=0.0127) was “transient adverse effect”, the “GDS score (geriatric depression) compared to placebo” value (PSP patients [1]; females, week 52, Wilcoxon, P=0.023) was “improved significantly” and the “bulbar domain of the PSPRS (dysarthria, dysphagia) vs placebo” value (PSP patients [1]; females, week 52, P=0.0222) was “significant protective effect”. The “limb motor skills (PSPRS domain) vs placebo” value (PSP patients [1]; females, P=0.0838) was “partially protected”, the “ventricular volume change vs baseline ventricular volume” value (PSP patients [1]; males, 30 mg twice daily intranasally, 52 weeks) was “no drug effects” and the “PSPRS change compared to the placebo group” value (PSP patients [1]; [8]) was “significant increase in PSPRS”. The “SEADL change compared to the placebo group” value (PSP patients [1]; [8]) was “decrease in SEADL”, the “percent of baseline ventricular volume change with age vs placebo” value (PSP patients [1]; men, 30 mg twice daily intranasally, 52 weeks) was “No differences” and the “percent of baseline ventricular volume change with age vs placebo” value (PSP patients [1]; men, 30 mg twice daily intranasally, 52 weeks, listed as NAP peptide) was “not observed in males”. The “phosphorylated Tau in the cerebrospinal fluid (CSF) compared to placebo” value (PSP patients [1]; [9]) was “trends in total Tau and phosphorylated Tau reduction”, the “total Tau in the cerebrospinal fluid (CSF) compared to placebo” value (PSP patients [1]; [9]) was “trends in total Tau and phosphorylated Tau reduction” and the “percent of baseline ventricular volume change with age vs placebo” value (PSP patients [1]; women (older woman patients), 30 mg twice daily intranasally, 52 weeks) was “significant neuroprotective effect”. The “percent of baseline ventricular volume change with age vs placebo” value (PSP patients [1]; women (older woman patients), 30 mg twice daily intranasally, 52 weeks, listed as NAP peptide) was “reduced the increase in the size of brain ventricles”, the “effect of treatment on aMCI symptoms” value ([2]; listed as NAP) was “significant improvement” and the “effect of treatment on aMCI symptoms” value ([2]; listed as NAP peptide) was “statistically significant effect”. For the same compound, the “DMTS change vs placebo, Student's t test” value ([2]; test week 8) was “significant difference”, the “DMTS change vs placebo, Student's t test” value ([2]; week 4 and 16) was “trending” and the “UPSA change, average” value ([3]; men, 5 mg daily) was 7.4 points. The “effect on UPSA” value ([3]; men, 5 mg daily, especially after 6 weeks) was “effective”, the “effect on UPSA” value ([3]; men, 15 mg twice daily (30 mg/day), 12 weeks) was “significant results” and the “effect on UPSA” value ([3]; men, 15 mg twice daily (30 mg/day), 12 weeks, listed as NAP) was “significant improvement”. The “UPSA change, mean” value ([3]; women, 5 mg daily, 12 weeks) was 14.9 points, the “effect on UPSA” value ([3]; women, 5 mg daily, after 6 and 12 weeks) was “beneficial” and the UPSA improvement ([3]; women, 5 mg daily, after 12 weeks) was 15%. For the same compound, the “effect on UPSA” value ([3]; women, 15 mg twice daily (30 mg/day), week 12, vs 5 mg/day P=0.002) was “significantly lower effect”, the “effect on UPSA” value ([3]; women, 15 mg twice daily (30 mg/day), week 12, vs 5 mg/day P=0.002, listed as NAP) was “not observed” and the “Hace1 gene/mRNA intron retention event (aberrant alternative splicing)” value (Hace1; ADNP mutated HTR males, brain hippocampal samples) was “corrected”. For the same compound, the “Hace1 expression as a consequence of NAP treatment” value (Hace1; male vs female Adnp mutated mice, hippocampus) was “sex-specific opposite expression”, the “cognitive score in aMCI (Morimoto et al.)” value [4] was “cognitive score enhancement” and the “UPSA score vs placebo (Javitt et al.)” value ([5]; sexes mixed) was “significantly more effective”. For the same compound, the “UPSA score vs placebo (Javitt et al.)” value ([5]; sexes mixed, listed as NAP) was “significantly higher”, the “UPSA between-group effect size (d)” value ([5]; 5 mg dose) was 0.74 and the “UPSA score vs 5 mg daily dose and placebo (Javitt et al.)” value ([5]; 30 mg (15 mg twice daily), sexes mixed) was “insignificantly different”. The “UPSA between-group effect size (d)” value ([5]; 30 mg dose) was 0.48, the “daily living activities in schizophrenia patients (Javitt et al.)” value ([5]; sexes mixed) was “protection of daily living activities” and the gait deficits [6] was “ameliorated”. The “PSP trial outcome, sexes not separated (Boxer et al.)” value (PSP patients [7]) was “did not meet its endpoints”, the “PSP trial outcome, sexes not separated (Boxer et al.)” value (PSP patients [7]; listed as Davunetide) was “not an effective treatment” and the “safety in the PSP trial (Boxer et al.)” value (PSP patients [7]; in vivo) was “showing safety”.
